Where “and” joins values, the source holds several entries; their conditions need not be identical. Equal values may be shown once.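 Five concentrations, 48 hours, 96-well plates. At the GI50, growth is halved. Definition used: TGI = concentration required for complete inhibition of growth.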
Tests used:
Test in all cases: DTP human tumour cell line panel, 48 h
[1] = system: HCT-15 colon
[2] = system: SF-539 CNS
[3] = system: NCI-H460 lung
[4] = system: A549 NSCLC
[5] = system: HOP-92 NSCLC
[6] = system: TK-10 renal
[7] = system: UO-31 renal
[8] = system: SN12C renal
[9] = system: OVCAR-5 ovarian
[10] = system: UACC-257 melanoma

Compound	GI50 [1] [µM]	TGI [1]	GI50 [2] [µM]	TGI [2]	GI50 [3] [µM]	TGI [3]	GI50 [4] [µM]	TGI [4]	GI50 [5] [µM]	TGI [5]	GI50 [6]	TGI [6]	GI50 [7] [µM]	TGI [7]	GI50 [8] [µM]	TGI [8]	GI50 [9]	TGI [9]	GI50 [10] [µM]	TGI [10]
Cn1ncc2c(Nc3ccc(Br)cc3)nc(Nc3ccc(Br)cc3)nc21	2.2	5.62 µM	3.17	10.8 µM	2.23	5.23 µM	4.46	30.8 µM	1.66	5.23 µM	4.75 µM	19 µM	3.28	29 µM	3.28	12.9 µM	11.3 µM	24.1 µM	5.32	18.8 µM
COC(=O)c1cnc2nc(N3CCOCC3)[nH]n2c1=O		> 100 µM		> 100 µM		> 100 µM		> 100 µM		> 100 µM		> 100 µM		> 100 µM		> 100 µM		> 100 µM		> 100 µM
Nc1ccccc1C#C/C=C\C#Cc1ccc(F)cc1F	14.1	31.7 µM	7.22	22.4 µM	12.9	28.7 µM	16.8	67.7 µM	18.3	59.7 µM	11.2 µM	30.4 µM	13.1	33 µM	12.3	27.7 µM	14.8 µM	29.6 µM	19.5	50 µM
CN(C(=O)C1CCCCC1)c1ccccc1I(=O)=O	23.3	59.2 µM	39.2	> 100 µM	48	> 100 µM	55.9	> 100 µM	26.1	67 µM	27.4 µM	> 100 µM	51	> 100 µM	79.4	> 100 µM	37.2 µM	> 100 µM	63.6	> 100 µM
COc1ccc(OC)c(/C=C/[N+](=O)[O-])c1		17.1 µM and 6.73 µM		13.8 µM and 10.4 µM	2.91	9.32 µM and 13.9 µM	2.85	15.4 µM and 13.6 µM	2.04	7.23 µM and 10.4 µM	1.86 µM and 5.04 µM	4.58 µM and 10.5 µM		3.39 µM and 5.62 µM		7.19 µM and 7.69 µM	2.11 µM and 4.32 µM	4.45 µM and 9.01 µM	3.19	11.7 µM and 8.28 µM
Cc1cc(N(CCCl)CCCl)ccc1C=Nc1cccnc1	27.5	> 100 µM	4.81	> 100 µM	0.369	> 47.7 µM	14.3	> 100 µM	13.9	68.2 µM	10.4 µM	> 66 µM	12.4	> 86.7 µM	10.6	> 100 µM	1.86 µM	15.9 µM	3.7	23.2 µM
CN(C)CCNC(=O)c1ccc2ccc3cccnc3c2n1		63.5 µM		33.7 µM		35.9 µM		> 52.9 µM		65.2 µM		62.8 µM		47.9 µM		> 92.9 µM		47.8 µM		35.4 µM
CCCCN(CC)C(=O)C(=O)C1C(=O)Nc2ccccc2S1=O (stereo unspecified)		> 100 µM		> 100 µM		> 100 µM		> 100 µM		> 100 µM		> 100 µM		> 100 µM		> 100 µM		> 100 µM		> 100 µM
Cc1cccc(C)c1NC(=O)CCC(=O)NNC(=O)c1cc(O)c2ccccc2c1		> 100 µM		78.2 µM		> 100 µM		> 100 µM		> 100 µM		> 100 µM		> 100 µM		> 100 µM		> 100 µM		> 100 µM
CCOc1ccc(NC(=O)Nc2cc(C(C)C)ccc2C)cc1	28.7	> 100 µM	4.39	16.6 µM	9.22	> 100 µM	4.56	17.6 µM	1.83	7.54 µM	2.21 µM	6.61 µM	4.82	16.9 µM	5.15	24 µM	11.9 µM	> 76 µM	8.83	44.9 µM
